Reference: ChEMBL document CHEMBL1201862, “PubChem BioAssay data set” (2004)
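Assay format: 96-well plates, 48-hour exposure. Here, GI50 denotes the concentration required for 50% inhibition of growth.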 Active and inactive are the calls of the source. Rule as the data show it: active = GI50 up to about 1.1 µM and inactive = higher.

Key:
Test in all cases: NCI tumour cell line growth inhibition, 48 h
RXF 393 = test system: RXF 393
HT-29 = test system: HT-29
U-251 = test system: U-251
MOLT-4 = test system: MOLT-4
OVCAR-5 = test system: OVCAR-5
RPMI-8226 = test system: RPMI-8226
SK-MEL-5 = test system: SK-MEL-5
HOP-62 = test system: HOP-62
OVCAR-4 = test system: OVCAR-4
Hs-578T = test system: Hs-578T
MDA-MB-435 = test system: MDA-MB-435
HCT-116 = test system: HCT-116
IGROV-1 = test system: IGROV-1
SK-MEL-2 = test system: SK-MEL-2
TK-10 = test system: TK-10
UO-31 = test system: UO-31
SK-MEL-28 = test system: SK-MEL-28
UACC-257 = test system: UACC-257
SNB-75 = test system: SNB-75
SR = test system: SR

Measured: GI50

CC(CN(C)C)C(=O)c1ccccc1C(=O)O (stereo unspecified)
inactive: RXF 393 39.4 µM | HT-29 38.7 µM | U-251 16.1 µM | MOLT-4 20.4 µM | OVCAR-5 52.4 µM | RPMI-8226 18.5 µM | SK-MEL-5 28.5 µM | HOP-62 20.6 µM | OVCAR-4 35.5 µM | Hs-578T 11.1 µM | MDA-MB-435 20.1 µM | HCT-116 32.1 µM | IGROV-1 44 µM | SK-MEL-2 15.7 µM | TK-10 19.5 µM | UO-31 47.2 µM | SK-MEL-28 31.2 µM

Nc1n[n+]([O-])c2cnccc2[n+]1[O-]
inactive: UACC-257 24 µM | HT-29 39.1 µM | U-251 58.2 µM | SNB-75 > 100 µM | MOLT-4 51.8 µM | OVCAR-5 52 µM | RPMI-8226 > 100 µM | SK-MEL-5 16.4 µM | HOP-62 > 100 µM | OVCAR-4 56.2 µM | Hs-578T > 100 µM | SR 54.7 µM | MDA-MB-435 21.4 µM | HCT-116 32.4 µM | IGROV-1 37.2 µM | SK-MEL-2 > 100 µM | TK-10 > 100 µM | UO-31 > 100 µM | SK-MEL-28 82.4 µM

CCOC(=O)C1(C(=O)OCC)C[C@]23OCCC(=O)[C@H]2[C@H]2C(=O)OC(C)(C)O[C@]23C1
inactive: UACC-257 > 100 µM | HT-29 > 100 µM | U-251 > 100 µM | SNB-75 > 100 µM | MOLT-4 > 100 µM | OVCAR-5 > 100 µM | RPMI-8226 > 100 µM | SK-MEL-5 > 100 µM | HOP-62 > 100 µM | OVCAR-4 > 100 µM | Hs-578T > 100 µM | SR > 100 µM | MDA-MB-435 > 100 µM | HCT-116 > 100 µM | IGROV-1 > 100 µM | SK-MEL-2 > 100 µM | TK-10 > 100 µM | UO-31 > 100 µM | SK-MEL-28 > 100 µM

CN(C(=O)[C@@H](NC(=O)OC(C)(C)C)c1ccccc1)[C@H]1CCCC[C@@H]1N1CCCC1
inactive: UACC-257 72.6 µM | HT-29 > 100 µM | U-251 > 100 µM | MOLT-4 > 100 µM | OVCAR-5 > 100 µM | RPMI-8226 > 100 µM | SK-MEL-5 > 100 µM | HOP-62 > 100 µM | OVCAR-4 > 100 µM | Hs-578T > 100 µM | SR > 100 µM | MDA-MB-435 > 100 µM | HCT-116 > 100 µM | IGROV-1 > 100 µM | SK-MEL-2 > 100 µM | TK-10 > 100 µM | UO-31 > 100 µM | SK-MEL-28 > 100 µM

CC1(C)CC(=O)/C(=C/C2CCNC2=S)C(=O)N1 (stereo unspecified)
inactive: UACC-257 > 100 µM | HT-29 > 100 µM | U-251 > 100 µM | SNB-75 > 100 µM | MOLT-4 > 100 µM | OVCAR-5 > 100 µM | RPMI-8226 > 100 µM | SK-MEL-5 > 100 µM | HOP-62 > 100 µM | OVCAR-4 > 100 µM | Hs-578T > 100 µM | SR > 100 µM | MDA-MB-435 > 100 µM | HCT-116 > 100 µM | IGROV-1 > 100 µM | SK-MEL-2 > 100 µM | TK-10 > 100 µM | UO-31 > 100 µM | SK-MEL-28 > 100 µM

CC1CCCC2=C1C(c1ccc(Cl)cc1)n1c(s/c(=C\c3ccc(Cl)cc3)c1=O)=N2 (stereo unspecified)
inactive: RXF 393 > 100 µM | UACC-257 > 100 µM | HT-29 > 100 µM | U-251 > 100 µM | SNB-75 > 100 µM | OVCAR-5 > 100 µM | RPMI-8226 > 100 µM | SK-MEL-5 > 100 µM | HOP-62 > 100 µM | Hs-578T > 100 µM | MDA-MB-435 > 100 µM | HCT-116 > 100 µM | IGROV-1 > 100 µM | SK-MEL-2 > 100 µM | TK-10 > 100 µM | UO-31 > 100 µM | SK-MEL-28 > 100 µM

COC(=O)C(CSSC[C@H](N/C(C)=C/C(C)=O)C(=O)OC)N/C(C)=C/C(C)=O (stereo partly specified)
inactive: RXF 393 15.1 µM | UACC-257 32.7 µM | HT-29 38.7 µM | U-251 33.3 µM | SNB-75 71.4 µM | MOLT-4 32.3 µM | OVCAR-5 18.7 µM | RPMI-8226 21.3 µM | SK-MEL-5 67.3 µM | HOP-62 57.9 µM | OVCAR-4 > 100 µM | Hs-578T 21.6 µM | MDA-MB-435 74.5 µM | HCT-116 27 µM | IGROV-1 36.7 µM | SK-MEL-2 > 100 µM | TK-10 2.66 µM | UO-31 47.5 µM | SK-MEL-28 > 100 µM

O=C(Cn1nnc(-c2ccccc2)n1)N/N=C/c1cn(Cc2ccc(Cl)cc2Cl)c2ccccc12
inactive: UACC-257 > 100 µM | HT-29 > 100 µM | U-251 > 100 µM | SNB-75 45.1 µM | MOLT-4 > 100 µM | OVCAR-5 > 100 µM | RPMI-8226 > 100 µM | SK-MEL-5 > 100 µM | HOP-62 > 100 µM | OVCAR-4 > 100 µM | Hs-578T > 100 µM | SR 63.1 µM | MDA-MB-435 > 100 µM | HCT-116 > 100 µM | IGROV-1 > 100 µM | SK-MEL-2 > 100 µM | TK-10 > 100 µM | UO-31 > 100 µM
